Reference: EP0241804A2, “Preserved antacid preparations” (BAYER AG, priority 1986, dated 1987)

System: Testmikroorganismen
Assay: Preservative challenge test (BP 1980 / USP XXI) of antacid preparations
Type: cell-based
Details: for Ergebnisse von Konservierungstests: Hydrotalcitsuspensionen with the preservative added at various concentrations (Tabelle 2); for Vermehrung von Bakterien und Hefen: Hydrotalcitsuspensionen, also at high preservative concentrations
From the text: Der Nachweis der einwandfreien Haltbarmachung von Antacida-Zubereitungen erfolgte mit Hilfe geeigneter Konservierungsbelastungstests wie sie z.B. in der Britischen Pharmakopöe von 198O (British Pharmacopoeia 198O, Addendum 1982, Revised Apendix XVIC: Efficacy of Antimicrobial Preservatives in Pharmaceutical Products) oder der Pharmakopöe der Vereinigten Staaten (The United States Pharmacopeia XXI (1985) Antimicrobial Preservatives Effectiveness,S. 1151-1156) beschrieben werden.
Neben einer Richtlinie der WHO für nichtsterile Produkte, die eine Begrenzung des Keimgehalts in nichtsterilen oralen Arzneimitteln auf 1OOO/ml fordert, gelten unterschiedlich hohe Anforderungen hinsichtlich der Abtötungsrate für bestimmte Testmikroorganismen, je nach Pharmakopöe. Die britische Pharmakopöe verlangt z.B. eine Verminderung der Bakterienkonzentration um 2 Zehnerpotenzen innerhalb von 7 Tagen sowie keine Vermehrung von Hefen und Schimmelpilzen (s. Tab. 1).

Compound | Ergebnisse von Konservierungstests | Vermehrung von Bakterien und Hefen
O=C(O)c1ccccc1 [Benzoesäure] | unwirksam | Vermehrung von Bakterien und Hefen
N=C(NCCCCCCNC(=N)NC(=N)Nc1ccc(Cl)cc1)NC(=N)Nc1ccc(Cl)cc1 [Chlorhexidin] | unwirksam | –
C=CCc1ccc(O)c(OC)c1 [Eugenol, 2-Methoxy-4-(2-propenyl)phenol] | gut konserviert | –
C/C=C/C=C/C(=O)O [Sorbinsäure] | unwirksam | Vermehrung von Bakterien und Hefen
Cc1ccc(C(C)C)c(O)c1 [Thymol, 5-Methyl-2-(1-methylethyl)phenol] | gut konserviert | –
O=CC=Cc1ccccc1 [Zimtaldehyd, 3-Phenyl-2-propenal] | gut konserviert | –
